From patent US8952025B2, “Multifunctional radical quenchers and their uses” (Arizona Board of Regents, A Body Corporate of the State of …, priority 2010, dated 2015)
“Also recorded” adds a separate entry of the source.

Assays:
[1] = James et al. (2005); cited from earlier work
cytochrome c = experiment: Cytochrome c reduction assay; format: biochemical; conditions: 100 μM compound, 10 μM cytochrome c, absorbance 550 nm
Experimental: The rate of cytochrome c (10 μM) reduction was measured by monitoring the change in absorbance at 550 nm. Briefly the reaction was initiated by addition of 100 μM of the invention compounds to a mixture containing 50 mM phosphate buffer, 0.1 mM EDTA, pH 7.8, and 10 μM cytochrome c (Sigma, St. Louis, Mo. USA). For cytochrome c reduction by superoxide, xanthine oxidase (0.01 IU/mL) (Sigma, St. Louis, Mo. USA) was used in presence of xanthine (50 μM).

CEM cells [2] = experiment: Trypan blue cell viability assay, DEM-treated cells; format: cell-based, human
Experimental: Cell viability determined by trypan blue exclusion assay: This technique was used to assess the cytoprotective effects of the invention compounds in cultured cells pharmacologically treated to induce cell death by GSH depletion. DEM was used to deplete cellular GSH and induce oxidative stress. The viability of DEM-treated CEM cells was determined by their ability to exclude the dye trypan blue. Viable cells exclude trypan blue; whereas, non-viable cells take up the dye and stain blue. Briefly, CEM cells were grown in RPMI 1640 medium (GIBCO, Grand island, N.Y., USA) supplemented with 10% fetal calf serum, 2 mM glutamine (HyClone, South Logan, Utah, USA), 1% penicillin-streptomycin mix (Cellgro, Manassan, Va., USA). Cells were seeded at a density of 1×10^6 cells/mL and treated with different concentrations of the invention compounds. Cells were incubated at 37° C. in a humidified atmosphere of 5% CO2 in air for three hours with 5 mM DEM. Cell viability was determined by staining cells with 0.4% trypan blue using a hemacytometer. At least 500 cells were counted for each experimental group. At the time of assay, >95% of DEM-treated cells were trypan blue positive; whereas, in non-DEM treated control cell cultures >95% cells were viable. Cell viability was expressed as the percentage of control. Data are expressed as means±S.E.M (n=3).

CEM leukemia cells = experiment: Mitochondrial membrane potential (Δψm) assay, TMRM, FACS; format: cell-based, human; conditions: pretreatment 0.5, 1 or 2.5 μM overnight, DEM
Experimental: Measurement of Mitochondrial Membrane Potential (Δψm)(FACS). For the determination of Δψm, CEM leukemia cells were pre-treated with or without the test compounds. The cells were treated with 5 mM DEM for 120 minutes, collected by centrifugation at 300×g for 3 minutes and then washed twice with phosphate buffered saline. The cells were re-suspended in HSSB buffer and incubated at 37° C. in the dark for 15 minutes with 250 nM TMRM (a cationic dye which accumulates within mitochondria in accordance with the Δψm Nernst potential). Cells were collected by centrifugation at 300×g for 3 minutes and then washed twice with phosphate buffered saline. The samples were analyzed immediately by flow cytometry using 488 nm excitation laser and the FL2-H channel. The results obtained were verified in three independent experiments. The protonophore FCCP (30 μM) was used to dissipate the chemiosmotic proton gradient (ΔμH^+) and served as a control for loss of Δψm. In each analysis, 10,000 events were recorded.

CEM cells [3] = experiment: Reactive oxygen species (ROS) assay, DCFH-DA, DEM-treated cells; format: cell-based, human; conditions: for protection against ROS production (DCF fluorescence): 5 mM DEM
From the text: Cellular ROS production can be monitored using 2′,7′-dichlorodihydrofluorescein diacetate (DCFH-DA) (LeBel et al. (1992) Chem. Res. Toxicol. 5, 227-231) (Molecular Probes, Eugene, Oreg., USA), a membrane permeable and oxidant-sensitive fluorescent dye. DCFH-DA is a non-fluorescent derivative of fluorescein that emits fluorescence after being oxidized by hydrogen peroxide and other ROS. The emitted fluorescence is directly proportional to the concentration of hydrogen peroxide. DCFH-DA is nonionic and nonpolar and is easily taken up by cells. Once inside the cell, DCFH-DA is hydrolyzed by cellular esterases to non-fluorescent DCFH which traps the dye in the cell. In the presence of ROS including hydrogen peroxide, DCFH is oxidized to the highly fluorescent compound dichlorofluorescein (DCF). The intracellular DCF fluorescence is used as an index of cellular ROS production.
Cellular oxidative stress was induced by pharmacological depletion of glutathione (GSH) using the chemical diethylmaleate (DEM). ROS production was assessed by monitoring DCF fluorescence. Leukemic CEM cells (ATCC®, catalogue number CRL-2264) were cultured in RPMI (GIBCO, Grand island, N.Y., USA) with 10% FCS, 2 mM glutamine (HyClone, South Logan, Utah, USA) and 1% penicillin-streptomycin mix antibiotics (Cellgro, Manassan, Va., USA) supplements. Cells were maintained in the log phase at a concentration of between 1×10^5 and 1×10^6 cells/mL. CEM cells (1×10^6 cell/mL) were plated (1 mL) in twelve well plate and treated with the invention compounds (final concentration 1 and 5 μM), and incubated for two hours at 37° C., 5% CO2. The compounds tested were prepared by first making stock solutions (2.5 mM) in dimethylsulfoxide (DMSO). Cells were treated with 5 mM DEM for 30 minutes and collected by centrifugation at 300×g for 3 min and then washed twice with Hanks' Balanced Salt Solution (HSSB) buffer (Sigma, St. Louis, Mo. USA). Cells were resuspended in HSSB buffer+10 mM glucose and incubated at 37° C. in the dark for 20 min with 10 μM DCFH-DA. Cells were collected by centrifugation at 300×g for 3 min and then washed twice with HSSB buffer. The samples were analyzed immediately by flow cytometry (Becton-Dickinson FACS Caliber), (Cell Quest software, BD Biosciences) using 488 nm excitation laser and FL1-H channel 538 nm emission filter. In each analysis, 10,000 events were recorded after cell debris were electronically gated out. Results obtained were verified by repeating experiments N=3 independent experiments. Authentic hydrogen peroxide was used as a positive control.

[4] = C11-BODIPY581/591 oxidation lipid peroxidation assay in liposomes; conditions: 10 mM AAPH, phospholipid liposomes, phosphate buffer, 40° C.
Experimental: To overcome the problem of spectral overlap using cis-parinaric acid, a fluorescence assay for lipid peroxidation using a lipophilic probe belonging to the BODIPY class of fluorescent dyes was used. C11-BODIPY^581/591 (4,4-difluoro-5(4-phenyl-1,3-butadienyl)-4-bora-3a,4a-diaza-s-indacene-3-propionic acid) fluorescence shifts from red to green upon oxidation. C11-BODIPY^581/591 (Molecular Probes, Eugene, Oreg., USA) stock solution concentrations were determined by measuring the absorption of C11-BODIPY^581/591 at 582 nm using a molar extinction coefficient of 140,000 mol^−1 cm^−1(R. P. Haugland, (1999) Handbook of Fluorescent Probes and Research Chemicals, Molecular Probes, Inc., Eugene, Oreg.). The lipid peroxidation inducer 2,2′-Azobis (2-amidino-propane dihydrochloride) (AAPH) and the antioxidant compound α-tocopherol were obtained from Sigma (St. Louis, Mo., USA). Phospholipid bilayers were prepared from 1-stearoyl-2-oleoyl-phosphatidylcholine (SOPC) and 1,2-dilinoleoyl-phosphatidylcholine (DLPC) and were purchased from Avanti® polar lipids, INC (Alabaster, Ala., USA).
Phosphotidylcholine (PC) liposomes were prepared as described before (Guey-Shuang et al. (1982) Lipids. 17, 403-413). Briefly, DLPC (25 mg) and SOPC (25 mg) were dissolved in chloroform and the solvent was removed by nitrogen evaporation (˜2 hours to give a thin film of PC in a round bottom flask. The lipid film was hydrated with 50 mL of 10 mM Tris-HCl (pH 7.4), 100 mM KCl, shaken and sonicated for 15 seconds. The liposomes obtained were filtered several times through 0.2 μM membrane filter.
C11 BODIPY^581/591 was incorporated into liposomes and oxidized by peroxyl radicals derived from the decomposition of AAPH in presence and absence of the compounds. […] Liposomes were pre-incubated for 10 min with 200 nM C11 BODIPY^581/591 to allow their incorporation into the lipid phase of the liposomes. After the addition of AAPH (10 mM) the decay of red fluorescence was followed at λ exc=570 nm, λ em=600 nm. Relative fluorescence units were normalized to 100% intensity. Results obtained were verified by repeating experiments N=3 independent experiments.

Row | Structure (SMILES) | calculated octanol-water partition coefficient [1] | reduction of cytochrome c (cytochrome c) | EC50 (CEM cells [2]; Homo sapiens, CCRF-CEM, CEM cells, pre-treatment 2 h, diethylmaleate 3 h, trypan blue exclusion, read-out: EC50 (effective concentration that prevents 50% of cell death)) [µM] | maintaining cell viability (trypan blue exclusion) (CEM cells [2]; overnight incubation, then 5 mM DEM, 3 h) | maintaining mitochondrial membrane potential Δψm (CEM leukemia cells) | protection against ROS production (DCF fluorescence) (CEM cells [3]; compound 1 μM) | protection against ROS production (DCF fluorescence) (CEM cells [3]; compound 5 μM) | suppression of ROS production (DCF fluorescence) (CEM cells [3]; pretreatment 0.5, 1 or 5 μM, DEM) | quenching of lipid peroxidation (retention of C11-BODIPY581/591 fluorescence) [4]
1 | COC1=C(OC)C(=O)C(C/C=C(\C)CC/C=C(\C)CC/C=C(\C)CC/C=C(\C)CC/C=C(\C)CC/C=C(\C)CC/C=C(\C)CC/C=C(\C)CC/C=C(\C)CCC=C(C)C)=C(C)C1=O [coenzyme Q10] | > 10^20 | – | – | – | – | – | – | – | –
2 | Cc1cc(N(C)C)nc(CCCCCCCCCCO)c1O [Compound B, 2-N,N-dimethylamino-5-hydroxy-4-methyl-6-(10-hydroxydecyl)-pyridine] | – | clearly reduce cytochrome c | 0.3 ± 0.022 | quite effective in maintaining cell viability following DEM treatment; also recorded: superior to idebenone in maintaining the viability of DEM-treated cells | clearly more effective in maintaining mitochondrial membrane potential; also recorded: very favorable properties | less effective at this concentration | significantly more effective in blocking diethylmaleate-induced ROS production compared to idebenone or its reduced form (Idebenol); also recorded: protected the cells | more effective than idebenone at all tested concentrations; also recorded: more effective than idebenone in suppressing ROS in a dose-dependent fashion | about as effective as C
